Experimental data reported in patent publication US10730863B2, “Bridged bicyclic compounds as farnesoid X receptor modulators” (BRISTOL-MYERS SQUIBB COMPANY, priority 2017, dated 2020).
pEC50: −log10 of the molar value.

Target: FXR (Homo sapiens (Human), UniProt Q96RI1)
Assay: FXR EC50 (FXR agonist activity reported with each example)
Type: cell-based

FXR, sequence (Q96RI1 262-486): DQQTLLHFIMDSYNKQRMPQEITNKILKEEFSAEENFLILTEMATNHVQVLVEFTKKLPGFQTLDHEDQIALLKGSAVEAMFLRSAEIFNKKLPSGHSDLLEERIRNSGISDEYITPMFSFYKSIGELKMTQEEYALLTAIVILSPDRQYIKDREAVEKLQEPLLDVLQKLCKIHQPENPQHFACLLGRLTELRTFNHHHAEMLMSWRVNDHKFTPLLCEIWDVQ

| Structure (SMILES) | pEC50 |
| --- | --- |
| O=C(O)c1c(F)ccc(-c2noc(C34CCC(OCc5c(-c6c(Cl)cccc6Cl)noc5C5CC5)(CC3)CC4)n2)c1F [Example 68, 3-(5-(4-((5-Cyclopropyl-3-(2,6-dichlorophenyl)isoxazol-4-yl)methoxy)bicyclo[2.2.2]octan-1-yl)-1,2,4-oxadiazol-3-yl)-2,6-difluorobenzoic acid] | 6.60 |
| O=C(O)c1cc(C(F)(F)F)cc2nc(C34CCC(/C=C/c5c(-c6c(Cl)cncc6Cl)noc5C5CC5)(CC3)CC4)sc12 [Example 507, (E)-2-(4-(2-(5-cyclopropyl-3-(3,5-dichloropyridin-4-yl)isoxazol-4-yl)vinyl)bicyclo[2.2.2]octan-1-yl)-5-(trifluoromethyl)benzo[d]thiazole-7-carboxylic acid] | 7.70 |
| O=C(O)c1ncc(OCC23CCC(OCc4c(-c5c(Cl)cncc5Cl)noc4C4CC4)(CC2)CC3)cc1OC1CC1 [Example 340] | 7.34 |
| Cc1cc(C(=O)O)ncc1C#CC12CCC(OCc3c(-c4c(Cl)cncc4Cl)noc3C3CC3)(CC1)CC2 [Example 387] | 7.24 |
| COc1c(C(=O)O)cccc1-c1noc(C23CCC(/C=C/c4c(-c5c(Cl)cncc5Cl)noc4C4CC4)(CC2)CC3)n1 [Example 448, (E)-3-(5-(4-(2-(5-cyclopropyl-3-(3,5-dichloropyridin-4-yl)isoxazol-4-yl)vinyl)bicyclo[2.2.2]octan-1-yl)-1,2,4-oxadiazol-3-yl)-2-methoxybenzoic acid] | 8.00 |
| O=C(O)c1cccc2nc(C34CCC(OCc5c(-c6c(Cl)cncc6Cl)noc5C5CC5)(CC3)CC4)ccc12 [Example 368] | 7.44 |
| O=C(O)c1ccc(-c2noc(C34CCC(OCc5c(-c6ccccc6OC(F)(F)F)noc5C5CC5)(CC3)CO4)n2)cc1 [Example 212] | 6.00 |
| O=C(O)c1cccc2nc(C34CCC(/C=C/c5c(-c6c(Cl)cncc6Cl)noc5C5CC5)(CC3)CC4)sc12 [Example 503, (E)-2-(4-(2-(5-cyclopropyl-3-(3,5-dichloropyridin-4-yl)isoxazol-4-yl)vinyl)bicyclo[2.2.2]octan-1-yl)benzo[d]thiazole-7-carboxylic acid] | 7.51 |
| O=C(O)c1cc(-c2noc(C34CCC(COCc5c(-c6c(Cl)cncc6Cl)noc5C5CC5)(CC3)CC4)n2)cc(C(F)(F)F)c1 [Example 485, 3-(5-(4-(((5-cyclopropyl-3-(3,5-dichloropyridin-4-yl)isoxazol-4-yl)methoxy)methyl)bicyclo[2.2.2]octan-1-yl)-1,2,4-oxadiazol-3-yl)-5-(trifluoromethyl)benzoic acid] | 6.42 |
| O=C(O)c1cn(CC23CCC(OCc4c(-c5c(Cl)cccc5Cl)noc4C4CC4)(CC2)CC3)nc1C(F)F [Example 268, 1-((4-((5-cyclopropyl-3-(2,6-dichlorophenyl)isoxazol-4-yl)methoxy)bicyclo[2.2.2]octan-1-yl)methyl)-3-(difluoromethyl)-1H-pyrazole-4-carboxylic acid] | 6.34 |
| CC(C)Oc1cc(C(=O)O)nc2ccc(C#CC34CCC(OCc5c(-c6c(Cl)cncc6Cl)noc5C5CC5)(CC3)CC4)cc12 [Example 390] | 7.70 |
| O=C(O)c1cc(C#CC23CCC(OCc4c(-c5c(Cl)cncc5Cl)noc4C4CC4)(CC2)CC3)cc2[nH]ccc12 [Example 415] | 7.20 |
| COc1c(C(=O)O)cccc1-c1noc(C23CCC(OCc4c(-c5c(Cl)cncc5Cl)noc4C4CC4)(CC2)CC3)n1 [Example 237, 3-(5-(4-((5-cyclopropyl-3-(3,5-dichloropyridin-4-yl)isoxazol-4-yl)methoxy)bicyclo[2.2.2]octan-1-yl)-1,2,4-oxadiazol-3-yl)-2-methoxybenzoic acid] | 7.57 |
| CC(C)(C(=O)O)c1ccc(C23CCC(/C=C/c4c(-c5ccccc5C(F)(F)F)noc4C4CC4)(CC2)CO3)cc1 [Example 477, (E)-2-(4-(4-(2-(5-cyclopropyl-3-(2-(trifluoromethyl)phenyl)isoxazol-4-yl)vinyl)-2-oxabicyclo[2.2.2]octan-1-yl)phenyl)-2-methylpropanoic acid] | 5.82 |
| COc1ccc(-c2nc(C34CCC(OCc5c(-c6c(Cl)cncc6Cl)noc5C5CC5)(CC3)CC4)no2)cc1C(=O)O [Example 234, 5-(3-(4-((5-cyclopropyl-3-(3,5-dichloropyridin-4-yl)isoxazol-4-yl)methoxy)bicyclo[2.2.2]octan-1-yl)-1,2,4-oxadiazol-5-yl)-2-methoxybenzoic acid] | 6.72 |
| COc1cc(C(=O)O)cc(-c2noc(C34CCC(OCc5c(-c6c(Cl)cncc6Cl)noc5C5CC5)(CC3)CC4)n2)c1 [Example 239, 3-(5-(4-((5-cyclopropyl-3-(3,5-dichloropyridin-4-yl)isoxazol-4-yl)methoxy)bicyclo[2.2.2]octan-1-yl)-1,2,4-oxadiazol-3-yl)-5-methoxybenzoic acid] | 7.10 |
| O=C(O)c1cccc(-c2noc(C34CCC(OCc5c(-c6c(Cl)cccc6Cl)noc5C5CC5)(CC3)C4)n2)c1 [Example 221, 3-(5-((1r,4r)-4-((5-cyclopropyl-3-(2,6-dichlorophenyl)isoxazol-4-yl)methoxy)bicyclo[2.2.1]heptan-1-yl)-1,2,4-oxadiazol-3-yl)benzoic acid] | 6.52 |
| O=C(O)c1ccc(-c2noc(C34CCC(/C=C/c5c(-c6c(Cl)cccc6Cl)noc5C5CC5)(CC3)CC4)n2)cc1 [Example 160] | 7.29 |

| Structure (SMILES) | pEC50 |
| --- | --- |
| O=C(O)c1cccc(-c2noc(C34CCC(/C=C/c5c(-c6c(Cl)cncc6Cl)noc5C5CC5)(CC3)CC4)n2)c1 [Example 504, (E)-3-(5-(4-(2-(5-cyclopropyl-3-(3,5-dichloropyridin-4-yl)isoxazol-4-yl)vinyl)bicyclo[2.2.2]octan-1-yl)-1,2,4-oxadiazol-3-yl)benzoic acid] | 7.48 |
| O=C(O)c1ccc(C#CC23CCC(OCc4c(-c5c(Cl)cncc5Cl)noc4C4CC4)(CC2)CC3)c2ncccc12 [Example 412] | 8.00 |
| O=C(O)c1cc(C(F)(F)F)c2ccc(C34CCC(OCc5c(-c6c(Cl)cncc6Cl)noc5C5CC5)(CC3)CC4)nc2c1 [Example 422] | 6.44 |
| O=C(O)c1ccc2cc(CCC34CCC(OCc5c(-c6c(Cl)cncc6Cl)noc5C5CC5)(CC3)CC4)ccc2n1 [Example 515, 6-(2-(4-((5-cyclopropyl-3-(3,5-dichloropyridin-4-yl)isoxazol-4-yl)methoxy)bicyclo[2.2.2]octan-1-yl)ethyl)quinoline-2-carboxylicacid] | 7.06 |
| N#Cc1cc(C(F)(F)F)cc(C23CCC(COCc4c(-c5c(Cl)cncc5Cl)noc4C4CC4)(CC2)CO3)c1 [Example 488, 3-(4-(((5-cyclopropyl-3-(3,5-dichloropyridin-4-yl)isoxazol-4-yl)methoxy)methyl)-2-oxabicyclo[2.2.2]octan-1-yl)-5-(trifluoromethyl)benzonitrile] | 5.62 |
| O=C(O)c1cccc2nc(C34CCC(COCc5c(-c6c(Cl)cccc6Cl)noc5C5CC5)(CC3)CC4)sc12 [Example 172, 2-(4-(((5-cyclopropyl-3-(2,6-dichlorophenyl)isoxazol-4-yl)methoxy)methyl)bicyclo[2.2.2]octan-1-yl)benzo[d]thiazole-7-carboxylic acid] | 7.05 |
| COC(=O)c1ccc(-c2noc(C34CCC(C=Cc5c(-c6c(Cl)cccc6Cl)noc5C5CC5)(CC3)CC4)n2)cc1 [Example 161] | 6.02 |
| O=C(O)c1cccc2c1CN(C(=O)C13CCC(OCc4c(-c5c(Cl)cccc5Cl)noc4C4CC4)(CC1)CC3)CC2 [Example 146, 2-(4-((5-cyclopropyl-3-(2,6-dichlorophenyl)isoxazol-4-yl)methoxy)bicyclo[2.2.2]octane-1-carbonyl)-1,2,3,4-tetrahydroisoquinoline-8-carboxylic acid] | 5.51 |
| Cc1ccc(C(=O)O)c2ccc(C34CCC(OCc5c(-c6c(Cl)cncc6Cl)noc5C5CC5)(CC3)CC4)nc12 [Example 389] | 8.22 |
| COc1ccc(-c2noc(C34CCC(/C=C/c5c(-c6c(Cl)cncc6Cl)noc5C5CC5)(CC3)CO4)n2)cc1C(=O)O [Example 492, (E)-5-(5-(4-(2-(5-cyclopropyl-3-(3,5-dichloropyridin-4-yl)isoxazol-4-yl)vinyl)-2-oxabicyclo[2.2.2]octan-1-yl)-1,2,4-oxadiazol-3-yl)-2-methoxybenzoic acid] | 6.60 |
| O=C(O)c1cc(OC2COC2)c2cc(OCC34CCC(OCc5c(-c6c(Cl)cncc6Cl)noc5C5CC5)(CC3)CC4)ccc2n1 [Example 361] | 7.15 |
| Cc1cc(C(=O)O)nc2ccc(OCC34CCC(OCc5c(-c6c(Cl)cncc6Cl)noc5C5CC5)(CC3)CC4)cc12 [Example 325] | 7.28 |
| CC(C)Oc1cc(OCC23CCC(OCc4c(-c5c(Cl)cncc5Cl)noc4C4CC4)(CC2)CC3)cc(C(=O)O)c1 [Example 326] | 7.77 |
| O=C(O)c1cc(-c2noc(C34CCC(OCc5c(-c6c(Cl)cncc6Cl)noc5C5CC5)(CC3)CC4)n2)ccc1F [Example 233, 5-(5-(4-((5-cyclopropyl-3-(3,5-dichloropyridin-4-yl)isoxazol-4-yl)methoxy)bicyclo[2.2.2]octan-1-yl)-1,2,4-oxadiazol-3-yl)-2-fluorobenzoic acid] | 7.04 |
| COC(=O)c1ccc(C23CCC(CNc4c(-c5c(Cl)cccc5Cl)noc4C4CC4)(CC2)CO3)cc1 [Intermediate 203A, methyl 4-(4-(((5-cyclopropyl-3-(2,6-dichlorophenyl)isoxazol-4-yl)amino)methyl)-2-oxabicyclo[2.2.2]octan-1-yl)benzoate] | 5.55 |
| O=C(O)c1cc(-c2noc(C34CCC(OCc5c(-c6ccccc6C(F)(F)F)noc5C5CC5)(CC3)CC4)n2)ccn1 [Example 50] | 5.68 |
| O=C(O)c1cc(-c2noc(C34CCC(OCc5c(-c6c(Cl)cncc6Cl)noc5C5CC5)(CC3)CC4)n2)cc(OCC(F)(F)F)n1 [Example 263, 4-(5-(4-((5-cyclopropyl-3-(3,5-dichloropyridin-4-yl)isoxazol-4-yl)methoxy)bicyclo[2.2.2]octan-1-yl)-1,2,4-oxadiazol-3-yl)-6-(2,2,2-trifluoroethoxy)picolinic acid] | 7.02 |
| COC(=O)c1ccc(NC(=O)C23CCC(COCc4c(-c5c(Cl)cccc5Cl)noc4C4CC4)(CC2)CC3)c(Cl)c1 [Intermediate 170A, methyl 3-chloro-4-(4-(((5-cyclopropyl-3-(2,6-dichlorophenyl)isoxazol-4-yl)methoxy)methyl)bicyclo[2.2.2]octane-1-carboxamido)benzoate] | 5.62 |
